# Target: RbgA (Staphylococcus aureus, UniProt A0A0H2XK72)
# Test: GTPase activity assay of wild-type and Atto488-labeled RbgA
# Type: biochemical
# Settings: 100 μM ppGpp, 1 μM GTP, 0.1 μM RA-GTPase, 0.1 μM 70S ribosomes, 37°C, 60 min
# Text: To gain further insight into the binding mechanism and how (p)ppGpp reduces the association of RA-GTPases to the ribosomal subunits, we used a stopped-flow technique with fluorescent derivatives of the RA-GTPases (Fig. 3A). Structural predictions of all four RA-GTPases were built by homology modeling using available structures to assess the availability of suitable residues for fluorescence labeling (see Fig. S3A and B) ([43]). Both RbgA and HflX were amenable to covalent linkage to the fluorophore Atto-488 using maleimide chemistry with exposed cysteine residues. […]
# Supplementary file : FIG S3 Labeling sites and GTPase activity of Atto488-labelled proteins. […] Enzymatic activity was monitored by TLC and quantified by using ImageQuant. […]
# GTPase activity assays were performed as previously described ([10]). Briefly, the ability of proteins to hydrolyze GTP was determined by incubating 100 nM recombinant protein with 100 nM S. aureus 70S ribosomes, 1 μM GTP and 2.78 nM [α-^32P]GTP in 40 mM Tris (pH 7.5), 100 mM NaCl (100 mM KCl for RbgA), and 10 mM MgCl2 at 37°C for the indicated times. […] The radioactive spots were exposed to a BAS-MS imaging plate (Fujifilm) and visualized using an LA 7000 Typhoon PhosphorImager (GE Healthcare), and images were quantified using ImageQuant (GE Healthcare).
# Chain of RbgA (A0A0H2XK72 entry or part of it): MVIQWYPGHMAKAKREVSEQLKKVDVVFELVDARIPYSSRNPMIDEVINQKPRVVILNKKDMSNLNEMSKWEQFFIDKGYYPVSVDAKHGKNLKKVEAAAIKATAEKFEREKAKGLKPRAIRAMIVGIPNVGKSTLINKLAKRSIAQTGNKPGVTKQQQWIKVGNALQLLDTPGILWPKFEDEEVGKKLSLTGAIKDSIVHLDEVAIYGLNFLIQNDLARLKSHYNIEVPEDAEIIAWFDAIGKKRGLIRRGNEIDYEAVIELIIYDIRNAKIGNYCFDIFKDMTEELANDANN
compound,measurement,value
Nc1nc2c(ncn2[C@@H]2O[C@H](COP(=O)(O)OP(=O)(O)O)[C@@H](OP(=O)(O)OP(=O)(O)O)[C@H]2O)c(=O)[nH]1 [ppGpp],inhibition of GTPase activity of Atto488-labeled RbgA,can still be inhibited
